One data set concerns the target T1, TRKC (Homo sapiens, UniProt Q16288).
T1 construct: purchased Carna bioscience 08-197
The data set can be described thus: HTRF KinEASE-TK kinase activity inhibition assay, TRKC. It counts as biochemical. As to conditions: ATP 50 µM. The text has this:
(§1) The following method was used to determine the inhibition degrees of the compounds of the present invention on the activity of recombinant human NTRK family kinase in vitro. In this method, HTRF®KinEASE-TK tyrosine kinase kit (article number: 62TK0PEB) of Cisbio company was used, and the principle of the kit was based on time-resolved fluorescence resonance energy transfer (TF-FRET), and the inhibition of the compounds on the activity of the NTRK kinase was reflected by determining a phosphorylation degree of a biotinylated polypeptide substrate mediated by NTRK kinase. For detailed experimental operation, please refer to the kit instruction. Recombinant human wild-type NTRK proteins were purchased from Carna bioscience (the article numbers were TRKA #08-186, TRKB #08-187 and TRKC #08-197 respectively), and recombinant human mutant NTRK proteins were purchased from SignalChem (the article numbers were TRKA G595R #N16-12BG-10, TRKA G667C # N16-12CG-10, and TRKC G623R # N18-12CH-10 respectively).
(§2) The experimental methods were operated according to the steps in the kit instruction, and were briefly described as follows: a test compound was first dissolved in DMSO to prepare a storage solution, and then diluted in gradient with a buffer provided in the kit. A final concentration of the test compound in the reaction system ranged from 1,000 nM to 0.004 nM. An ATP Km value concentration of each NTRK protein was determined by using an ATP solution diluted in gradient (Sangon Biotech (Shanghai) Co., Ltd., A600311). According to the Km value obtained, the ATP concentrations in the reaction system were set as 100 µM for TRKA, 10 µM for TRKB, 50 µM for TRKC, 7 µM for TRKA(G595R), 1 µM for TRKA(G667C) and 100 µM for TRKC(G623R). The reaction was carried out in a 384-well microplate. Firstly, the compound and a certain amount of corresponding NTRK protein were added to the wells and incubated for 5 minutes to 10 minutes at room temperature. Then, the ATP solution and the biotinylated polypeptide substrate solution were added to the reaction solution and incubated with shaking at room temperature for 60 minutes. Then, an anti-phosphorylated tyrosine antibody coupled with a europium compound and streptavidin coupled with modified allophycocyanin XL665 were added to the reaction, and continuously incubated with shaking at room temperature for 1 hour. After incubation, fluorescence intensity values of each well at an excitation wavelength of 304 nm, and emission wavelengths of 620 nm and 665 nM were determined in a TF-FRET mode on a microplate reader. Compared with the fluorescence intensity ratio of a control group (0.1% DMSO), the percentage inhibition rates of the compound at each concentration were calculated, and the IC50 value of the compound was obtained by performing nonlinear regression analysis for logarithmic value of the compound concentration - inhibition rate by GraphPad Prism 5 software, which can be seen in Table 1. Table 1 IC50 data of the compounds of the present invention on TRK enzyme activity inhibition
(In TR-FRET formats the signal depends on donor and acceptor labels being close together.)

A further data set concerns the target T2, TRKA (Homo sapiens, UniProt P04629).
T2 construct: purchased Carna bioscience 08-186
The data set can be described thus: HTRF KinEASE-TK kinase activity inhibition assay, TRKA. It counts as biochemical. As to conditions: ATP 100 µM.
Excerpt: as §1, §2

The next data set concerns the target T3, TRKB (Homo sapiens, UniProt Q16620).
T3 construct: purchased Carna bioscience 08-187
Briefly: HTRF KinEASE-TK kinase activity inhibition assay, TRKB. The following applies: ATP 10 µM. It counts as biochemical.
Excerpt: as §1, §2

The target in the next data set is T4, TRKA(G595R) (Homo sapiens, UniProt P04629, G595R).
T4 construct: purchased SignalChem N16-12BG-10
The data set can be described thus: HTRF KinEASE-TK kinase activity inhibition assay, TRKA(G595R). The class given is biochemical. The following applies: ATP 7 µM.
Excerpt: as §1, §2

A further data set concerns the target T5, TRKA(G667C) (Homo sapiens, UniProt P04629, G667C).
T5 construct: purchased SignalChem N16-12CG-10
The data set can be described thus: HTRF KinEASE-TK kinase activity inhibition assay, TRKA(G667C). As to conditions: ATP 1 µM. It counts as biochemical.
Excerpt: as §1, §2

Data set [1] is described as follows: Pharmacokinetic study on ICR mice (plasma, LC-MS/MS). The class given is in vivo. As to conditions: male, mouse; for AUC(0-inf): read-out: Area under curve AUC0-∞; for half-life: read-out: Half-life T1/2(h) (converted). How it is done:
ICR mice, male, 29.0 g to 33.8g, purchased from Beijing Charles River Laboratory Animal Technology Co., Ltd.
Intravenous injection group: an appropriate amount of drug was weighed, and added with mixed solvent (DMA: 30% Solutol HS-15: Saline = 10: 10: 80 (v/v/v)) to prepare the drug with a final concentration of 0.2 mg/mL.
Oral gavage administration group: an appropriate amount of drug was weighed, added with an appropriate amount of sodium carboxymethyl cellulose (CMC-Na, containing 0.5% Tween 80), vortex shaked, and ultrasonically prepared into […] suspension.
For ICR mice, each compound to be tested was divided into an intravenous injection group (9 mice in each group) and an intragastric group (9 mice in each group). The ICR mice were fasted overnight and then administered by orbital intravenous injection (administration dose of 1 mg/kg, and administration volume of 5 mL/kg) and administered by intragastric injection (administration dose of 5 mg/kg, and administration volume of 10 mL/kg), and ate 4 hours after administration.
About 0.2 mL of blood was collected via jugular vein before administration and 0.083 hour, 0.25 hour, 0.5 hour, 1 hour, 2 hours, 4 hours, 8 hours, 12 hours and 24 hours after administration, and heparin sodium was used for anticoagulation. The collected blood samples were placed on ice, and plasma was separated by centrifugation (centrifugation condition: 1500 g, 10 minutes). The collected plasma was stored at-40°C to -20°C before analysis.
LC-MS/MS was used to determine the contents of different compounds to be tested in mouse plasma after intravenous injection and intragastric administration.
The pharmacokinetic parameters of the compounds of the present invention and the positive control can be seen in Table 8. Table 8 Results of pharmacokinetic parameters

The mark [2] stands for this setting: intravenous, 1 mg/kg, injection.

The structures appear in SMILES notation. Where two headings read alike, the source gives them in different places.

T2 sequence (P04629 33-796): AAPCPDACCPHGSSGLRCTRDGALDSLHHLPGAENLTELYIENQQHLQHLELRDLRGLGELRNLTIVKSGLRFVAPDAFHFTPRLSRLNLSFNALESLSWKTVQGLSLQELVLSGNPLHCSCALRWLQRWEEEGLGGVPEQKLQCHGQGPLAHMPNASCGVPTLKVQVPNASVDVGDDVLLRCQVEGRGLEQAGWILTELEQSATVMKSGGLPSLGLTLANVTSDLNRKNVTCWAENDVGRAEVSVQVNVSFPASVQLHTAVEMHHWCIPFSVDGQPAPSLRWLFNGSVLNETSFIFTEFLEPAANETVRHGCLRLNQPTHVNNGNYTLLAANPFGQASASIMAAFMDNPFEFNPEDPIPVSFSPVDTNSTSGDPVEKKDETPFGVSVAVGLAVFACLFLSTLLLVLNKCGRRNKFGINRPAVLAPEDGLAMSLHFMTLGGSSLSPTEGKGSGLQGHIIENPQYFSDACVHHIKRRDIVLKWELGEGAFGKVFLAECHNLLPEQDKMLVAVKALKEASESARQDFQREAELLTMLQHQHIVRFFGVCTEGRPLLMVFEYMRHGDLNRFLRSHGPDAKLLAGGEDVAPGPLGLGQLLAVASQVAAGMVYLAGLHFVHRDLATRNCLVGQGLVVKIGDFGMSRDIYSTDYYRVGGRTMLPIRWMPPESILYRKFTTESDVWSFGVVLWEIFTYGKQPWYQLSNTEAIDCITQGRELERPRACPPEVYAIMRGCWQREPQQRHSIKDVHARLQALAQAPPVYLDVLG
T5 sequence (P04629 33-796 G667C): as the sequence (P04629 33-796) above, with G635C counted along it
T4 sequence (P04629 33-796 G595R): as the sequence (P04629 33-796) above, with G563R counted along it
T3 sequence (Q16620 32-822): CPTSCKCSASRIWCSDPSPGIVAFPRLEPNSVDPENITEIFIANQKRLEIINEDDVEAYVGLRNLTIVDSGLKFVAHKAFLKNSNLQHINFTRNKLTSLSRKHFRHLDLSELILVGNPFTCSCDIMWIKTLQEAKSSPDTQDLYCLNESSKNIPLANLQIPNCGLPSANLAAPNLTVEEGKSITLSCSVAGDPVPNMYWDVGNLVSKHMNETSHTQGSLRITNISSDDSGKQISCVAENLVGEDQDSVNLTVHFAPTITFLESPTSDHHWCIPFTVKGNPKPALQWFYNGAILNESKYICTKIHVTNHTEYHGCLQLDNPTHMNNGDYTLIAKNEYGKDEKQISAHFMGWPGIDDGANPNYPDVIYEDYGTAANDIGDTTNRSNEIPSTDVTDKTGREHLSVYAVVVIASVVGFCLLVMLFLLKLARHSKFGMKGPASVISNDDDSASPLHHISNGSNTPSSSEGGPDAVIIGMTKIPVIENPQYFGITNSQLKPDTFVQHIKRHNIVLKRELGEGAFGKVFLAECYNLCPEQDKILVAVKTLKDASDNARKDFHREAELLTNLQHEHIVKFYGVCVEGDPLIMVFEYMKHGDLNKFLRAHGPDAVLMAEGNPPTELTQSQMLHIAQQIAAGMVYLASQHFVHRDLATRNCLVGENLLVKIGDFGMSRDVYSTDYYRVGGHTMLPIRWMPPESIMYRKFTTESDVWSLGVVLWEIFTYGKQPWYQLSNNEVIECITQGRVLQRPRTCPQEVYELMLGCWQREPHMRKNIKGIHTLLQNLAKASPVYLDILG
T1 sequence (Q16288 32-839): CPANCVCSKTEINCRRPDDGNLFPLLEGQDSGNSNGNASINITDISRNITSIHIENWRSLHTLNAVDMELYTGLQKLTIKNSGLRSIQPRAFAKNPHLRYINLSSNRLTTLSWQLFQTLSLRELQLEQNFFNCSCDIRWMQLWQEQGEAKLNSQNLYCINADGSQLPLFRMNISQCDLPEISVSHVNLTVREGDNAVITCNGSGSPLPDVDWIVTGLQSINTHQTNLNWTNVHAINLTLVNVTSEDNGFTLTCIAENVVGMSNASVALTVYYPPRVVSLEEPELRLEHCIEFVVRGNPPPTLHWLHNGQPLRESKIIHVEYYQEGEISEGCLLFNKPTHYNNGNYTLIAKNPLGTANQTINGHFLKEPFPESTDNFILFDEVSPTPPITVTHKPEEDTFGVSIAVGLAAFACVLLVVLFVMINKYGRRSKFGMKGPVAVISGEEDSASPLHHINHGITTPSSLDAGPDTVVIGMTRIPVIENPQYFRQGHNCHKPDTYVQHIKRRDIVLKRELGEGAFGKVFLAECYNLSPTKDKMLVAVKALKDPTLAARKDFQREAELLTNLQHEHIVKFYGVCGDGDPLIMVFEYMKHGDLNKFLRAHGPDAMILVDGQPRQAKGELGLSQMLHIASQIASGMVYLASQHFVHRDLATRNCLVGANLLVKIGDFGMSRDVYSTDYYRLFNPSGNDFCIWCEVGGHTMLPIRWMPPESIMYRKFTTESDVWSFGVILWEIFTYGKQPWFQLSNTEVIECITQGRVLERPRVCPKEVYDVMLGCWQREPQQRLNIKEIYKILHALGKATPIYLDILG

By IC50 is commonly meant the concentration needed to halve the response being measured. A high value points to lower potency. With `C[C@H]1Nc2ccn3ncc(c3n2)C(=O)NCC2Cc3cc(F)cc1c3O2` (stereo partly drawn) [Example 1, (3R)-6-fluoro-3-methyl-10-oxa-2,13,17,18,21-pent aazapentacyclo[13.5.2.1^8,11.0^4,9.0^18,22]tricosa-1(21), 4,6,8, 15(22),16, 19-heptaen-14-one], the half-inhibitory concentration (IC50) on TRKC was 0.5 nM; against TRKA, 1.66 nM; against TRKB, 0.29 nM; at TRKA(G595R) it was 11.3 nM.
Turning to `C[C@H]1Nc2ccn3ncc(c3n2)C(=O)NCC[C@H]2Cc3cc(F)cc1c3O2` [Example 3, (3R,11R)-6-fluoro-3-methyl-10-oxa-2,14,18,19,22-pentaazapentacyclo[14.5.2.1^8,11.0^4,9.0^19,23]tetracosa-1(22),4,6,8,16(23),17,20-heptaen-15-one], the concentration for half-maximal inhibition (IC50) against TRKC worked out at 0.47 nM; at TRKA it was 1.7 nM; at TRKB, 0.33 nM; against TRKA(G595R), 3.31 nM.
In the case of `C[C@H]1Nc2ccn3ncc(c3n2)C(=O)NCCC2=Cc3cc(F)cc1c3O2` [Example 6, (3R)-6-fluoro-3-methyl-10-oxa-2,14,18,19,22-pent aazapentacyclo[14.5.2.1^8,11.0^4,9.0^19,23]tetracosa-1(2 2),4,6,8,11(24),16(23),17,20-octaen-15-one], the IC50 stood at 1.05 nM on TRKA, 0.34 nM at TRKB and 11.3 nM against TRKA(G595R).
`C[C@H]1Nc2ccn3ncc(c3n2)C(=O)NC[C@]2(C)Cc3cc(F)c(F)c1c3O2` [Example 11, (3R,11S)-5,6-difluoro-3,11-dimethyl-10-oxa-2,13,1 7,18,21-pentaazapentacyclo[13.5.2.1^8,11.0^4,9.0^18,22]t ricosa-1(21),4,6,8,15(22),16,19-heptaen-14-one]: the IC50 against TRKC is 0.63 nM; against TRKA, 4.5 nM.
On to `COC[C@@]12CNC(=O)c3cnn4ccc(nc34)N[C@H](C)c3cc(F)cc(c3O1)C2` [Example 15, (3R,11R)-6-fluoro-11-(methoxymethyl)-3-methyl-10-oxa-2,13,17,18,21-pentaazapentacyclo[13.5.2.1 ^8,11.0^4,9.0^18,22]tricosa-1(21),4,6,8,15(22),16,19-hept aen-14-one], for which the results for the IC50 against TRKC and against TRKA were 0.37 nM and 2.8 nM, respectively.
For `C[C@H]1Nc2ccn3ncc(c3n2)C(=O)NCC2(CF)Cc3cc(F)cc1c3O2` (stereo partly drawn) [Example 18, (3R)-6-fluoro-11-(fluoromethyl)-3-methyl-10-oxa-2,13,17,18,21-pentaazapentacyclo[13.5.2.1^8,11.0^4,9. 0^18,22]tricosa-1(21),4,6,8,15(22),16,19-heptaen-14-one], the IC50 against TRKC came to 1.37 nM; against TRKA(G667C) it was 6.11 nM; on TRKA it was 0.63 nM; at TRKB, 0.17 nM; at TRKA(G595R), 3.9 nM.
Regarding `C[C@H]1Nc2ccn3ncc(c3n2)C(=O)NCC2(CO)Cc3cc(F)cc1c3O2` (stereo partly drawn) [Example 19, (3R)-6-fluoro-11-(hydroxymethyl)-3-methyl-10-ox a-2,13,17,18,21-pentaazapentacyclo[13.5.2.1^8,11.0^4, 9.0^18,22]tricosa-1(21),4,6,8,15(22),16,19-heptaen-14-one], the IC50 was 1.16 nM on TRKC, 3.4 nM on TRKA, 0.25 nM against TRKB and 19.3 nM on TRKA(G595R).
On to `C[C@H]1Nc2ccn3ncc(c3n2)C(=O)NCC[C@@]2(C)Cc3cc(F)cc1c3O2` [Example 20, (3R,11R)-6-fluoro-3,11-dimethyl-10-oxa-2,14,18,1 9,22-pentaazapentacyclo[14.5.2.1^8,11.0^4,9.0^19,23]tetra cosa-1(22),4,6,8,16(23),17,20-heptaen-15-one], for which the figures for the IC50 against TRKA(G667C) and against TRKA were 4.2 nM and 5.9 nM, respectively.
As for `C[C@H]1Nc2ccn3ncc(c3n2)C(=O)NCC[C@]2(C)Cc3cc(F)cc1c3O2` [Example 21, (3R,11S)-6-fluoro-3,11-dimethyl-10-oxa-2,14,18,1 9,22-pentaazapentacyclo[14.5.2.1^8,11.0^4,9.0^19,23]tetra cosa-1(22),4,6,8,16(23),17,20-heptaen-15-one], the IC50 is 24.6 nM at TRKA(G667C) and 18.5 nM against TRKA.
Turning to `C[C@H]1Nc2ccn3ncc(c3n2)C(=O)NC[C@]2(C)COc3cc(F)cc1c3O2` [Example 23, (2R,14R)-19-fluoro-2,14-dimethyl-16,22-dioxa-3,5 ,7,8,12-pentaazapentacyclo[12.6.2.2^4,7.0^6,10.0^17,21]te tracosa-1(20),4,6(10),8,17(21),18,23-heptaen-11-one], the IC50 was 4.83 nM against TRKA and 15.3 nM on TRKA(G595R).
As to `C[C@H]1Nc2ccc3ncc(n3n2)C(=O)NC[C@@]2(C)Cc3cc(F)cc1c3O2` [Example 26, (3R,11R)-6-fluoro-3,11-dimethyl-10-oxa-2,13,17,21,22-pentaazapentacyclo[13.5.2.1^8,11.0^4,9.0^18 ,22]tricosa-1(21),4,6,8,15,17,19-heptaen-14-one], the IC50 against TRKC came out at 0.8 nM; on TRKA(G667C) it was 15.5 nM; against TRKA it was 0.97 nM; at TRKB, 1.3 nM; against TRKA(G595R), 8.6 nM.
What is called bioavailability is dose-corrected exposure relative to a reference, in per cent. Usually clearance stands for the rate of elimination divided by the concentration. As to `C[C@H]1CNC(=O)c2cnn3ccc(nc23)N[C@H](C)c2cc(F)ccc2O1` [repotrectinib, reference compound], in data set [1] (5 mg/kg oral intake vs 1 mg/kg injection, read-out: Bioavailability F(%)), the bioavailability stood at 13%. In data set [1] (5 mg/kg, oral intake), the AUC(0-inf) was 530 ng·h/mL and the half-life was 2.93 h. For the same molecule, the Cmax in data set [1] (5 mg/kg, oral intake, read-out: Blood concentration Cmax) amounted to 154 ng/mL. In addition, in data set [1] (setting [2]), the AUC(0-inf) was determined as 824 ng·h/mL and the half-life was 3.9 h. In data set [1] (intravenous, 1 mg/kg, injection, read-out: Clearance rate), the clearance amounted to 20.2 mL/min/kg.
